Where a name gives a salt, the structure may show the parent alone. Read-outs that look alike come from different tables or passages of the source.
Columns and labels:
PKC epsilon = biological target: T1, PKC epsilon (Homo sapiens, UniProt Q02156); assay: Biochemical assay for PKC epsilon (fluorescence polarization, Protein Kinase C Assay Kit, Red); conditions: read-out: IC50 μM PKCε
T1 construct: purchased Invitrogen P2282
T1 sequence (Q02156 1-737): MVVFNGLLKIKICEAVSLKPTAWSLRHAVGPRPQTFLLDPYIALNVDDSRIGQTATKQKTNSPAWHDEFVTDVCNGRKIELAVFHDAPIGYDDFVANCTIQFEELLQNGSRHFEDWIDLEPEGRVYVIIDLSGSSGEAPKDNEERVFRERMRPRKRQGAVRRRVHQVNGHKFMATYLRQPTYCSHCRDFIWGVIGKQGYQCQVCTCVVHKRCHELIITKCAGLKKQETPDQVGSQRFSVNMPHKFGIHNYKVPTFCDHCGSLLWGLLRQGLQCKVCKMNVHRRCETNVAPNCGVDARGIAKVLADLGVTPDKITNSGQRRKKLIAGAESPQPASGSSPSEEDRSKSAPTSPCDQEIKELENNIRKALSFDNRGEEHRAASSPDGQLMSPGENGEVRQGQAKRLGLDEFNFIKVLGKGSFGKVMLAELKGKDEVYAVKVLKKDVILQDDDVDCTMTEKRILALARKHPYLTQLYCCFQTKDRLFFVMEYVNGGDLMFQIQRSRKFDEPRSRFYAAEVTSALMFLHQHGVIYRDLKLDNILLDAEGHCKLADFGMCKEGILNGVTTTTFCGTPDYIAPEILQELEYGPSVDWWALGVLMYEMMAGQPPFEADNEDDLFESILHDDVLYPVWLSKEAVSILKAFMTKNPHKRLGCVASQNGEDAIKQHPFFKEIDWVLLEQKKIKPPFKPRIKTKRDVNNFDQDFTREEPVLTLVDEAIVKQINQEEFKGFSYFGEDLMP
Procedure, shortened: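 PKC epsilon at 10 ng/ml final was preincubated 30 min at room temperature with compound in HEPES pH 7.4 with DTT and Triton X-100. ATP/protein substrate was then added in buffer with MgCl2 and CaCl2 for 80 min. The reaction was stopped with EDTA, phosphorylation was detected by fluorescence polarization with rhodamine tracer and anti-phosphoserine antibody, and IC50 values came from curve fits.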

human ROCKα/ROCKII mix = biological target: T2, human ROCKα/ROCKII mix (Homo sapiens, UniProt O75116); assay: Biochemical assay for ROCK (fluorescence polarization, ROCK IMAP Kit)
T2 construct: purchased Upstate Biotechnology 14-451

[1] = compounds of Formula XIV, Table 3
[2] = Table 2, compounds of Formula XIII

T2 sequence (O75116 11-552 limits assumed): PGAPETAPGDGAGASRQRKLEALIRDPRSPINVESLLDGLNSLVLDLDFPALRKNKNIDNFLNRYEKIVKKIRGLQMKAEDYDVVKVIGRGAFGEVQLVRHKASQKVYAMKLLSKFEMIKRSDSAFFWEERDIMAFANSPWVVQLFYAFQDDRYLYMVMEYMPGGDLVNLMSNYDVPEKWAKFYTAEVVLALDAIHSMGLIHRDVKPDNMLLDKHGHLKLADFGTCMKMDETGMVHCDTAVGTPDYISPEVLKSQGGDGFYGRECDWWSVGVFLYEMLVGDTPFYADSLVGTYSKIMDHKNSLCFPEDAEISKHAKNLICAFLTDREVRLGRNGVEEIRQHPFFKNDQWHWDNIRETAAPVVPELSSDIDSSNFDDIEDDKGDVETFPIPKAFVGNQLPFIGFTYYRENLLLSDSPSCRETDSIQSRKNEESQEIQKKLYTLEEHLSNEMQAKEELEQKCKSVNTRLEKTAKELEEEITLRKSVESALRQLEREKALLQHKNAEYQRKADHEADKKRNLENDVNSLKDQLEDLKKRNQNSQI

Molecule	IC50 (PKC epsilon; [1])	IC50 (human ROCKα/ROCKII mix; [1])	IC50 (PKC epsilon)	IC50 (human ROCKα/ROCKII mix)	further results
4-{1-Amino-2-[2-(9H-fluoren- 2-yl)-ethylcarbamoyl]-ethyl}- N-pyridin-4-yl-benzamide [Compound 318]	5 to 50 µM	0.05 to 0.5 µM	–	–	–
4-{1-Amino-2-[methyl-(1- phenyl- cyclopropanecarbonyl)- amino]-ethyl}- N-pyridin-4-yl-benzamide [Compound 452]	–	–	5 to 50 µM	0.5 to 5 µM	–
NC(CC(=O)NCc1cccc(OC(F)(F)F)c1)c1ccc(C(=O)Nc2ccncc2)cc1 (stereo not shown) [Compound 270, 4-[1-Amino-2-(3-trifluoromethoxy-benzylcarbamoyl)-ethyl]-N-pyridin-4-yl-benzamide]	0.5 to 5 µM	0.05 to 0.5 µM	–	–	–
NC(CNC(=O)c1cnccn1)c1ccc(C(=O)Nc2ccncc2)cc1 (stereo not shown) [Compound 108, Pyrazine-2-carboxylic acid {2-amino-2-[4-(pyridin-4-ylcarbamoyl)-phenyl]-ethyl}-amide]	–	–	–	–	IC50 (PKC epsilon; [2]): 5 to 50 µM; IC50 (human ROCKα/ROCKII mix; [2]): 0.5 to 5 µM
Cc1cccc(Cl)c1CNC(=O)CC(N)c1ccc(C(=O)Nc2ccncc2)cc1 (stereo not shown) [Compound 247, 4-[1-Amino-2-(2-chloro-6-methyl-benzylcarbamoyl)-ethyl]-N-pyridin-4-yl-benzamide]	0.5 to 5 µM	0.05 to 0.5 µM	–	–	–
NC(c1ccc(C(=O)Nc2ccncc2)cc1)C1CCCN1C(=O)Cc1cccc(Cl)c1 (stereo not shown) [Compound 560, 4-(Amino-{1-[2-(3-chloro-phenyl)-acetyl]-pyrrolidin-2-yl}-methyl)-N-pyridin-4-yl-benzamide]	–	–	5 to 50 µM	0.5 to 5 µM	–
CC(C)(C)ON=Cc1ccc(C(=O)NCC(N)c2ccc(C(=O)Nc3ccncc3)cc2)cc1 (racemic) [Compound 102, 4-{1-amino-2-[(4-tert-butoxyimino-methyl)-benzoylamino]-ethyl}-N-pyridin-4-yl-benzamide]	–	–	–	–	IC50 (PKC epsilon; [2]): 5 to 50 µM; IC50 (human ROCKα/ROCKII mix; [2]): 0.5 to 5 µM
NC(CC(=O)NCCc1cccs1)c1ccc(C(=O)Nc2ccncc2)cc1 (stereo not shown) [Compound 311, 4-[1-amino-2-(2-thiophen-2-yl-ethylcarbamoyl)-ethyl]-N-pyridin-4-yl-benzamide]	0.5 to 5 µM	0.05 to 0.5 µM	–	–	–
COc1ccc(C(NC(=O)CC(N)c2ccc(C(=O)Nc3ccncc3)cc2)c2ccc(OC)cc2)cc1 (stereo not shown) [Compound 244, 4-(1-Amino-2-{[bis-(4-methoxy-phenyl)-methyl]-carbamoyl}-ethyl)-N-pyridin-4-yl-benzamide]	0.5 to 5 µM	0.05 to 0.5 µM	–	–	–
NC(CNC(=O)c1cc2cc(Cl)ccc2o1)c1ccc(C(=O)Nc2ccncc2)cc1 (stereo not shown) [Compound 134, 5-Chloro-benzofuran-2-carboxylic acid {2-amino-2-[4-(pyridin-4-ylcarbamoyl)-phenyl]-ethyl}-amide]	–	–	–	–	IC50 (PKC epsilon; [2]): 5 to 50 µM; IC50 (human ROCKα/ROCKII mix; [2]): 0.5 to 5 µM
NC(CNC(=O)c1ccnc2ccccc12)c1ccc(C(=O)Nc2ccncc2)cc1 (stereo not shown) [Compound 111, Quinoline-4-carboxylic acid {2-amino-2-[4-(pyridin-4-ylcarbamoyl)-phenyl]-ethyl}-amide]	–	–	–	–	IC50 (PKC epsilon; [2]): 0.5 to 5 µM; IC50 (human ROCKα/ROCKII mix; [2]): 0.5 to 5 µM
NC(CNC(=O)Nc1ccccc1F)c1ccc(C(=O)Nc2ccncc2)cc1 (stereo not shown) [Compound 20, 4-{1-amino-2-[3-(2-fluoro-phenyl)-ureido]-ethyl}-N-pyridin-4-yl-benzamide]	–	–	0.5 to 5 µM	0.05 to 0.5 µM	–
4-[1-Amino-2-(2-methoxy- benzylcarbamoyl)-ethyl]- N-pyridin-4-yl-benzamide [Compound 236]	0.5 to 5 µM	0.05 to 0.5 µM	–	–	–
COc1ccc(CCNC(=O)CC(N)c2ccc(C(=O)Nc3ccncc3)cc2)cc1 (stereo not shown) [Compound 291, 4-{1-Amino-2-[2-(4-methoxy-phenyl)-ethylcarbamoyl]-ethyl}-N-pyridin-4-yl-benzamide]	0.5 to 5 µM	0.05 to 0.5 µM	–	–	–
NC(CC(=O)NCc1ccc(F)cc1)c1ccc(C(=O)Nc2ccncc2)cc1 (stereo not shown) [Compound 258, 4-[1-Amino-2-(4-fluoro-benzylcarbamoyl)-ethyl]-N-pyridin-4-yl-benzamide]	0.05 to 0.5 µM	0.05 to 0.5 µM	–	–	–
COc1cccc(NC(=O)NCC(N)c2ccc(C(=O)Nc3ccncc3)cc2)c1 (stereo not shown) [Compound 29, 4-{1-amino-2-[3-(3-methoxy-phenyl)-ureido]-ethyl}-N-pyridin-4-yl-benzamide]	–	–	0.5 to 5 µM	0.05 to 0.5 µM	–

Molecule	IC50 (PKC epsilon; [1])	IC50 (human ROCKα/ROCKII mix; [1])	IC50 (PKC epsilon)	IC50 (human ROCKα/ROCKII mix)	further results
NC(c1ccc(C(=O)Nc2ccncc2)cc1)C1CCCN1C(=O)C1CCCc2ccccc21 (stereo not shown) [Compound 613, 4-{Amino-[1-(1,2,3,4-tetrahydro-naphthalene-1-carbonyl)-pyrrolidin-2-yl]-methyl}-N-pyridin-4-yl-benzamide]	–	–	0.5 to 5 µM	0.5 to 5 µM	–
N[C@H](CC(=O)N[C@H]1CCCc2ccccc21)c1ccc(C(=O)Nc2ccncc2)cc1 [Compound 372, 4-{(R)-1-Amino-2-[(S)-(1,2,3,4-tetrahydro-naphthalen-1-yl)carbamoyl]-ethyl}-N-pyridin-4-yl-benzamide dihydrochloric acid salt]	–	–	0.5 to 5 µM	0.05 to 0.5 µM	–
NC(CNC(=O)CCC1CCCC1)c1ccc(C(=O)Nc2ccncc2)cc1 (stereo not shown) [Compound 51, 4-[1-Amino-2-(3-cyclopentyl-propionylamino)-ethyl]-N-pyridin-4-yl-benzamide]	–	–	–	–	IC50 (PKC epsilon; [2]): 0.5 to 5 µM; IC50 (human ROCKα/ROCKII mix; [2]): 0.05 to 0.5 µM
4-[1-Amino-2- (benzo[1,3]dioxol-5-yl- ethylcarbamoyl)-ethyl]-N- pyridin-4-yl-benzamide [Compound 296]	5 to 50 µM	0.05 to 0.5 µM	–	–	–
CC(C)C(C)NC(=O)CC(N)c1ccc(C(=O)Nc2ccncc2)cc1 (stereo not shown) [Compound 170, 4-[1-amino-2-(1,2-dimethyl-propylcarbamoyl)-ethyl]-N-pyridin-4-yl-benzamide]	0.5 to 5 µM	0.05 to 0.5 µM	–	–	–
4-{1-amino-2-[2-(4-methy)- octanoylamino]-ethyl}-N-pyridin-4-yl- benzamide [Compound 37]	–	–	–	–	IC50 (PKC epsilon; [2]): 0.5 to 5 µM; IC50 (human ROCKα/ROCKII mix; [2]): 0.05 to 0.5 µM
NC(c1ccc(C(=O)Nc2ccncc2)cc1)C1CCCN1C(=O)C(c1ccccc1)C1CCCCC1 (stereo not shown) [Compound 555, 4-{Amino-[1-(2-cyclohexyl-2-phenyl-acetyl)-pyrrolidin-2-yl]-methyl}-N-pyridin-4-yl-benzamide]	–	–	0.5 to 5 µM	0.5 to 5 µM	–
4-[1-Amino-2-(phenethyl- phenyl-carbamoyl)-ethyl]-N- pyridin-4-yl-benzamide [Compound 286]	0.5 to 5 µM	0.05 to 0.5 µM	–	–	–
NC(c1ccc(C(=O)Nc2ccncc2)cc1)C1CCCN1C(=O)Cc1ccc(F)cc1 (stereo not shown) [Compound 572, 4-(Amino-{1-[2-(4-fluoro-phenyl)-acetyl]-pyrrolidin-2-yl}-methyl)-N-pyridin-4-yl-benzamide]	–	–	5 to 50 µM	0.5 to 5 µM	–
COc1ccccc1C(=O)NCC(N)c1ccc(C(=O)Nc2ccncc2)cc1 (stereo not shown) [Compound 72, 4-[1-amino-2-(2-methoxy-benzoylamino)-ethyl]-N-pyridin-4-yl-benzamide]	–	–	–	–	IC50 (PKC epsilon; [2]): 0.5 to 5 µM; IC50 (human ROCKα/ROCKII mix; [2]): 0.5 to 5 µM
NC(c1ccc(C(=O)Nc2ccncc2)cc1)C1CCCN1C(=O)Cc1c(Cl)cccc1Cl (stereo not shown) [Compound 590, 4-(Amino-{1-[2-(2,6-dichloro-phenyl)-acetyl]-pyrrolidin-2-yl}-methyl)-N-pyridin-4-yl-benzamide]	–	–	5 to 50 µM	0.5 to 5 µM	–
NC(CC(=O)NCc1ccc(C(F)(F)F)c(F)c1)c1ccc(C(=O)Nc2ccncc2)cc1 (stereo not shown) [Compound 267, 4-[1-Amino-2-(3-fluoro-4-trifluoromethyl-benzylcarbamoyl)-ethyl]-N-pyridin-4-yl-benzamide]	0.5 to 5 µM	0.05 to 0.5 µM	–	–	–
Cc1ccc(CNC(=O)CC(N)c2ccc(C(=O)Nc3ccncc3)cc2)cc1 (stereo not shown) [Compound 233, 4-[1-Amino-2-(4-methyl-benzylcarbamoyl)-ethyl]-N-pyridin-4-yl-benzamide]	0.5 to 5 µM	0.05 to 0.5 µM	–	–	–
NC(CNC(=O)Nc1cccc2ccccc12)c1ccc(C(=O)Nc2ccncc2)cc1 (stereo not shown) [Compound 28, 4-[1-amino-2-(3-naphtalen-1-yl-ureido)-ethyl]-N-pyridin-4-yl-benzamide]	–	–	0.5 to 5 µM	0.05 to 0.5 µM	–
NC(c1ccc(C(=O)Nc2ccncc2)cc1)C1CCCN1C(=O)C1(c2ccc(F)c(F)c2)CC1 (stereo not shown) [Compound 587, 4-(Amino-{1-[1-(3,4-difluoro-phenyl)-cyclopropanecarbonyl]-pyrrolidin-2-yl}-methyl)-N-pyridin-4-yl-benzamide]	–	–	0.5 to 5 µM	0.5 to 5 µM	–
CC(C)(C(=O)NCC(N)c1ccc(C(=O)Nc2ccncc2)cc1)c1cccs1 (stereo not shown) [Compound 348, 4-[1-Amino-2-(2-methyl-2-thiophen-2-yl-propionylamino)-ethyl]-N-pyridin-4-yl-benzamide]	–	–	–	–	IC50 (PKC epsilon; [2]): < 0.05 µM; IC50 (human ROCKα/ROCKII mix; [2]): 0.05 to 0.5 µM

Reference: patent publication US20100168102A9, “Amide Derivatives as Kinase Inhibitors” (Devgen NV, priority 2005, published 2010)
